Experimental data: patent publication US20090012103A1, “SUBSTITUTED HETEROCYCLIC COMPOUNDS” (priority 2007, published 2009)
Read-outs that look alike come from different tables or passages of the source.

Biological target: wild-type human cardiac sodium channel, hNav1.5 (Homo sapiens, UniProt Q14524)
Experiment: Late INa screening assay (late sodium current, PatchXpress whole cell patch clamp)
Type: cell-based
Settings: read-out: Late INa % blk

wild-type human cardiac sodium channel, hNav1.5, sequence (Q14524 whole entry): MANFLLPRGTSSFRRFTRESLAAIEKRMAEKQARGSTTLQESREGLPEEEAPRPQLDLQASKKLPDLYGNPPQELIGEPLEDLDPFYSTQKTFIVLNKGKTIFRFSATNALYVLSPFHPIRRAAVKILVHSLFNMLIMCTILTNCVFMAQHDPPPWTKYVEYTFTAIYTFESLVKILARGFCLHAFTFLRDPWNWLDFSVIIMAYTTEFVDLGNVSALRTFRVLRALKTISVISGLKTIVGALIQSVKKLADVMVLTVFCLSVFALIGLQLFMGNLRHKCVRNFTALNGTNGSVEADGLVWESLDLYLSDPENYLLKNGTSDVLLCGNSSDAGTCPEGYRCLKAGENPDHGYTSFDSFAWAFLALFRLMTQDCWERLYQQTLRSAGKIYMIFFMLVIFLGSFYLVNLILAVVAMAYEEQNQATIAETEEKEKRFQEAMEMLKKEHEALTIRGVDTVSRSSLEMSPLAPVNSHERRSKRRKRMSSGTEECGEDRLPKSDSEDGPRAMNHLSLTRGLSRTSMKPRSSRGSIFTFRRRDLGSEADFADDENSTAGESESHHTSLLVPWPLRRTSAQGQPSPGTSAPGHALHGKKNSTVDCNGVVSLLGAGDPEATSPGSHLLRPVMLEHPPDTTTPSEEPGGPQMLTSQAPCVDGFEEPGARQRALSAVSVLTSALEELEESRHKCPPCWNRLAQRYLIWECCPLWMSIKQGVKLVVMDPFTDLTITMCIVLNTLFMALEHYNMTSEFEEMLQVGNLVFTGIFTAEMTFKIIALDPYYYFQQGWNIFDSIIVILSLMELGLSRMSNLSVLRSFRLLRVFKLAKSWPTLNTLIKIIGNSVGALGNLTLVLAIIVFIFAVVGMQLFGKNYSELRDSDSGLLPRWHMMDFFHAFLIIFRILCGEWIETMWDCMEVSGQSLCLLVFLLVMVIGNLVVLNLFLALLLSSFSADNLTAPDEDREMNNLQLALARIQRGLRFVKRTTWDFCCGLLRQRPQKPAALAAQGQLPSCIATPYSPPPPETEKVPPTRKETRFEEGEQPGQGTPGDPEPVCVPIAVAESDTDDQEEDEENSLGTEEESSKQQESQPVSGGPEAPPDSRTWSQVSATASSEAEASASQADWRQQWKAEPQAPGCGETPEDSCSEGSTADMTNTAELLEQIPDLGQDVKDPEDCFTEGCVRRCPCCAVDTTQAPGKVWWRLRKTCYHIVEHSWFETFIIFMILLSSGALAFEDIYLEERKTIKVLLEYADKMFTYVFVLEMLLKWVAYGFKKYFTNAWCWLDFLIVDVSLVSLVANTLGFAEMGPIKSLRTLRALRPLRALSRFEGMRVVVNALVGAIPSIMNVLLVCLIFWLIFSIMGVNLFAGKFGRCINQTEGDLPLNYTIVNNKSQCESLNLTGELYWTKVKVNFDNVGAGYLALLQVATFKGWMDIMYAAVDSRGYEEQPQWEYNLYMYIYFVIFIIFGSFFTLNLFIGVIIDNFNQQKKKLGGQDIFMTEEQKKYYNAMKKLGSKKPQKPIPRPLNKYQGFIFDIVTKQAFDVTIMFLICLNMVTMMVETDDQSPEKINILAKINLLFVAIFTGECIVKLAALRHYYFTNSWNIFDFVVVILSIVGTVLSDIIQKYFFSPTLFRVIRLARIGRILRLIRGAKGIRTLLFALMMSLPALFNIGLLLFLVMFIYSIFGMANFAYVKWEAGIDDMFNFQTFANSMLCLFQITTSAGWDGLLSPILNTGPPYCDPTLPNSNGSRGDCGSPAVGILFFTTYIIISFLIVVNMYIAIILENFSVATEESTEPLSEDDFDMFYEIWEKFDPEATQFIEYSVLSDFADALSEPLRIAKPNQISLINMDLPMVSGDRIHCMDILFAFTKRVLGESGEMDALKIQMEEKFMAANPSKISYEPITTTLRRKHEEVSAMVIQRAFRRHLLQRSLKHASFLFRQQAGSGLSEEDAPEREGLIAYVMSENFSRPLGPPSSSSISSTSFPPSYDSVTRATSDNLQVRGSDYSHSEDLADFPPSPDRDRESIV

| SMILES | inhibition at 10 µM (compound at 10 μM) [%] | inhibition at 10 µM [%] |
| --- | --- | --- |
| CCOC(=O)C1=C(C)NC(C)=C(C(=O)OCC)C1c1ccccc1-c1ccccc1 [PT-438, diethyl 4-(biphenyl-2-yl)-2,6-dimethyl-1,4-dihydropyridine-3,5-dicarboxylate] | 20.9 | – |
| CC1=C(C(=O)OCc2ccccc2)C(c2occc2Br)n2nnnc2N1 (centres unmarked) [PT-400, benzyl 7-(3-bromofuran-2-yl)-5-methyl-4,7-dihydrotetrazolo[1,5-a]pyrimidine-6-carboxylate] | 53.2 | – |
| CC1=C(C(=O)OCc2ccccc2)C(c2ccccc2OCc2ccccc2)C2=C(CCCC2=O)N1 (centres unmarked) [PT-328, benzyl 4-(2-(benzyloxy)phenyl)-2-methyl-5-oxo-1,4,5,6,7,8-hexahydroquinoline-3-carboxylate] | 58.1 | – |
| CCOC(=O)C1=C(C)NC2=C(C(=O)CCC2)C1c1ccc(N(C)C)c2ccccc12 (centres unmarked) [PT-139, ethyl 4-(4-(dimethylamino)naphthalen-1-yl)-2-methyl-5-oxo-1,4,5,6,7,8-hexahydroquinoline-3-carboxylate] | 21.8 | – |
| CCOC(=O)c1c(C)nc(C)c(C(=O)OCC)c1-c1sc2ccccc2c1C [PT-117, diethyl 2,6-dimethyl-4-(3-methylbenzo[b]thiophen-2-yl)pyridine-3,5-dicarboxylate] | 38.9 | – |
| CCOC(=O)C1=C(C)Nc2nnnn2C1c1ccccc1OCc1ccc(C(=O)OCC)cc1 (centres unmarked) [PT-482, ethyl 7-(2-(4-(ethoxycarbonyl)benzyloxy)phenyl)-5-methyl-4,7-dihydrotetrazolo[1,5-a]pyrimidine-6-carboxylate] | 3.2 | – |
| COC(=O)C1=C(C)Nc2nnnn2C1c1ccccc1I (centres unmarked) [PT-519, methyl 7-(2-iodophenyl)-5-methyl-4,7-dihydrotetrazolo[1,5-a]pyrimidine-6-carboxylate] | 27.3 | – |
| CC1=C(C(=O)OCc2ccccc2)C(c2ccc(C(F)(F)F)cc2)n2nnnc2N1 (centres unmarked) [PT-358, benzyl 5-methyl-7-(4-(trifluoromethyl)phenyl)-4,7-dihydrotetrazolo[1,5-a]pyrimidine-6-carboxylate] | 7.4 | – |
| CC1=C(C(=O)OCc2ccc(Cn3cccn3)cc2)C(c2ccc(N(C)C)c3ccccc23)n2nnnc2N1 (centres unmarked) [PT-283, 4-((1H-pyrazol-1-yl)methyl)benzyl 7-(4-(dimethylamino)naphthalen-1-yl)-5-methyl-4,7-dihydrotetrazolo[1,5-a]pyrimidine-6-carboxylate] | 11.4 | – |
| CCOC(=O)C1=C(C)Nc2[nH]ncc2C1c1c(OC)cccc1OC (centres unmarked) [PT-446, ethyl 4-(2,6-dimethoxyphenyl)-6-methyl-4,7-dihydro-1H-pyrazolo[3,4-b]pyridine-5-carboxylate] | 7 | – |
| CC1=C(C(=O)N2CCC(c3ccccc3)CC2)C(c2cccc3ccccc23)n2nnnc2N1 (centres unmarked) [PT-066, (5-methyl-7-(naphthalen-1-yl)-4,7-dihydrotetrazolo[1,5-a]pyrimidin-6-yl)(4-phenylpiperidin-1-yl)methanone] | 22.2 | – |
| COC(=O)C1=C(C)Nc2cc(C)nn2C1c1nc(C)cs1 (centres unmarked) [PT-507, methyl 2,5-dimethyl-7-(4-methylthiazol-2-yl)-4,7-dihydropyrazolo[1,5-a]pyrimidine-6-carboxylate] | 0.2 | – |
| CCOC(=O)C1=C(C)N(CC#N)c2nnnn2C1c1cccc2ccccc12 (centres unmarked) [PT-456, ethyl 4-(cyanomethyl)-5-methyl-7-(naphthalen-1-yl)-4,7-dihydrotetrazolo[1,5-a]pyrimidine-6-carboxylate] | 2.7 | – |
| CCCC1=C(C(=O)OCC)C(c2ccc(Br)s2)C(C(=O)OCC)=C(CCC)N1 [PT-182, diethyl 4-(5-bromothiophen-2-yl)-2,6-dipropyl-1,4-dihydropyridine-3,5-dicarboxylate] | 33 | – |
| CC1=C(C(=O)OC2CCCc3ccccc32)C(c2cccc3ccccc23)n2nnnc2N1 (centres unmarked) [PT-001, 1,2,3,4-tetrahydronaphthalen-1-yl 5-methyl-7-(naphthalen-1-yl)-4,7-dihydrotetrazolo[1,5-a]pyrimidine-6-carboxylate] | – | 28.8 |
| COc1cc(N(C)C)ccc1C1C(C(=O)OCc2ccccc2)=C(C)Nc2nnnn21 (centres unmarked) [PT-408, benzyl 7-(4-(dimethylamino)-2-methoxyphenyl)-5-methyl-4,7-dihydrotetrazolo[1,5-a]pyrimidine-6-carboxylate] | 30.4 | – |
| CCOC(=O)c1c(C)nc2[nH]ncc2c1-c1cccc2ccccc12 [PT-472, ethyl 6-methyl-4-(naphthalen-1-yl)-1H-pyrazolo[3,4-b]pyridine-5-carboxylate] | 22.6 | – |
| CCOC(=O)CN1C(C)=C(C(=O)OCC)C(c2cccc3ccccc23)n2nnnc21 (centres unmarked) [PT-449, ethyl 4-(2-ethoxy-2-oxoethyl)-5-methyl-7-(naphthalen-1-yl)-4,7-dihydrotetrazolo[1,5-a]pyrimidine-6-carboxylate] | 47.6 | – |
| CCOC(=O)C1=C(C)Nc2nnnn2C1c1cccc(OCc2cccc(C(=O)O)c2)c1 (centres unmarked) [PT-269, 3-((3-(6-(ethoxycarbonyl)-5-methyl-4,7-dihydrotetrazolo[1,5-a]pyrimidin-7-yl)phenoxy)methyl)benzoic acid] | 12.3 | – |

| SMILES | inhibition at 10 µM (compound at 10 μM) [%] | inhibition at 10 µM [%] |
| --- | --- | --- |
| CC1=C(C(=O)OCc2ccccc2)C(c2ccccc2)C2=C(CCCC2=O)N1 (centres unmarked) [PT-323, benzyl 2-methyl-5-oxo-4-phenyl-1,4,5,6,7,8-hexahydroquinoline-3-carboxylate] | 48.9 | – |
| CC1=C(C(=O)N[C@@H](C)c2ccccc2)C(c2cccc3ccccc23)n2nnnc2N1 (stereo partly drawn) [PT-071, 5-methyl-7-(naphthalen-1-yl)-N-((S)-1-phenylethyl)-4,7-dihydrotetrazolo[1,5-a]pyrimidine-6-carboxamide] | 16.3 | – |
| CCOC(=O)C1=C(C)Nc2nnnn2C1c1ccccc1Oc1ccc(C(=O)OCC)cc1 (centres unmarked) [PT-483, ethyl 7-(2-(4-(ethoxycarbonyl)phenoxy)phenyl)-5-methyl-4,7-dihydrotetrazolo[1,5-a]pyrimidine-6-carboxylate] | 31.8 | – |
| COC(=O)c1ccc(OCCOC(=O)C2=C(C)Nc3nnnn3C2c2cccc3ccccc23)cc1 (centres unmarked) [PT-251, 2-(4-(methoxycarbonyl)phenoxy)ethyl 5-methyl-7-(naphthalen-1-yl)-4,7-dihydrotetrazolo[1,5-a]pyrimidine-6-carboxylate] | 11.5 | – |
| CC1=C(C(=O)OCc2ccccc2)C(c2cccc3ccccc23)n2nnnc2N1CC#N (centres unmarked) [PT-337, benzyl 4-(cyanomethyl)-5-methyl-7-(naphthalen-1-yl)-4,7-dihydrotetrazolo[1,5-a]pyrimidine-6-carboxylate] | 30.2 | – |
| CC1=C(C(=O)OCc2ccccc2)C(c2ccc3c(c2)OCCO3)n2nnnc2N1 (centres unmarked) [PT-035, benzyl 7-(2,3-dihydrobenzo[b][1,4]dioxin-6-yl)-5-methyl-4,7-dihydrotetrazolo[1,5-a]pyrimidine-6-carboxylate] | 44 | – |
| COc1cc(OC)c(C2C(C(=O)OCc3ccccc3)=C(C)Nc3nnnn32)c(OC)c1 (centres unmarked) [PT-343, benzyl 5-methyl-7-(2,4,6-trimethoxyphenyl)-4,7-dihydrotetrazolo[1,5-a]pyrimidine-6-carboxylate] | 34.4 | – |
| COc1cc(C#N)ccc1C1C(C(=O)OCc2ccccc2)=C(C)Nc2nnnn21 (centres unmarked) [PT-417, benzyl 7-(4-cyano-2-methoxyphenyl)-5-methyl-4,7-dihydrotetrazolo[1,5-a]pyrimidine-6-carboxylate] | 41.3 | – |
| COC(=O)C1=C(C)Nc2[nH]ncc2C1c1nc(C)cs1 (centres unmarked) [PT-515, methyl 6-methyl-4-(4-methylthiazol-2-yl)-4,7-dihydro-1H-pyrazolo[3,4-b]pyridine-5-carboxylate] | 10.8 | – |
| CC1=C(C(=O)OCc2ccccc2)[C@@H](c2ccccc2-c2ccc(C(N)=O)cc2)n2nnnc2N1 [PT-242, (R)-benzyl 7-(4′-carbamoylbiphenyl-2-yl)-5-methyl-4,7-dihydrotetrazolo[1,5-a]pyrimidine-6-carboxylate] | 11 | – |
| N#CC1=C(N)OC2=C(C(=O)CC2)C1c1ccc(Br)cc1 (centres unmarked) [PT-093, 2-amino-4-(4-bromophenyl)-5-oxo-4,5,6,7-tetrahydrocyclopenta[b]pyran-3-carbonitrile] | -2.6 | – |
| CCC(OC(=O)C1=C(C)Nc2nnnn2C1c1cccc2ccccc12)c1ccccc1 (centres unmarked) [PT-063, 1-phenylpropyl 5-methyl-7-(naphthalen-1-yl)-4,7-dihydrotetrazolo[1,5-a]pyrimidine-6-carboxylate] | 47.5 | – |
| CCOC(=O)c1c(C)nc2[nH]ncc2c1-c1ccccc1 [PT-474, ethyl 6-methyl-4-phenyl-1H-pyrazolo[3,4-b]pyridine-5-carboxylate] | 22 | – |
| CCOC(=O)C1=C(C)NC(C)=C(C(=O)OCC)C1c1ccc(OC)cc1F [PT-432, diethyl 4-(2-fluoro-4-methoxyphenyl)-2,6-dimethyl-1,4-dihydropyridine-3,5-dicarboxylate] | 56.9 | – |
| CC1=C(C(=O)OCc2ccccc2)[C@@H](c2ccccc2-c2cccc(F)c2)n2nnnc2N1 [PT-240, (R)-benzyl 7-(3′-fluorobiphenyl-2-yl)-5-methyl-4,7-dihydrotetrazolo[1,5-a]pyrimidine-6-carboxylate] | 85 | – |
| O=C1OCC2=C1C(c1cccc3ccccc13)c1cn[nH]c1N2 (centres unmarked) [PT-084, 4-(naphthalen-1-yl)-7,8-dihydro-1H-furo[3,4-e]pyrazolo[3,4-b]pyridin-5(4H)-one] | 16.9 | – |
| CCOC(=O)C1=C(C)Nc2nnnn2C1c1cccc(Oc2cccc(C(=O)O)c2)c1 (centres unmarked) [PT-274, 3-(3-(6-(ethoxycarbonyl)-5-methyl-4,7-dihydrotetrazolo[1,5-a]pyrimidin-7-yl)phenoxy)benzoic acid] | 16.8 | – |
| COC(=O)c1ccc(C2C(C(=O)OCc3ccccc3)=C(C)Nc3nnnn32)c([N+](=O)[O-])c1 (centres unmarked) [PT-411, benzyl 7-(4-(methoxycarbonyl)-2-nitrophenyl)-5-methyl-4,7-dihydrotetrazolo[1,5-a]pyrimidine-6-carboxylate] | 11.4 | – |
| CC1=C(C(=O)OCc2ccccc2)C(c2ccccc2-c2ccccc2C#N)n2nnnc2N1 (centres unmarked) [PT-390, benzyl 7-(2′-cyanobiphenyl-2-yl)-5-methyl-4,7-dihydrotetrazolo[1,5-a]pyrimidine-6-carboxylate] | 20 | – |
